US20230124862A1, “BISMUTH THIOL COMPOUNDS AND COMPOSITIONS AND METHODS OF TREATING MICROBIAL CO-INFECTIONS” (Microbion Corporation, priority 2020, published 2023)
≈ marks a conversion by molar mass, not a printed value. Where two headings read alike, the source gives them in different places.

Experiments:
Enterococcus spp. = experiment: Broth microdilution MIC (Example 11); format: cell-based, E. faecalis, E. faecium; details: Enterococcus, VRE, enterococci incl. VRE; read-out: MIC values
S. aureus ATCC 29213 = details: cited from earlier work; for Expected MIC: goal (acceptable range): control strain ATCC 29213
[1] = tested on: Pseudomonas aeruginosa strain PA01; experiment: Bacterial killing curves with and without CF patient sputum; format: cell-based; details: for bactericidal activity: 0.1 μg/mL
Candida albicans = experiment: Antifungal broth microdilution (Example 13); format: cell-based; details: Candida albicans, 24 h, read-out: MIC0, C. albicans MMX 7445, FLU-R, VORI-R, complete inhibition
physchem = format: physicochemical
Pseudomonas aeruginosa = details: P. aeruginosa ATCC 27853; CLSI established QC range; cited from earlier work
[2] = tested on: MucilAir fully differentiated human airway epithelium
[3] = tested on: Gram-positive organisms (S. aureus, S. pneumoniae); details: cited from earlier work
P. aeruginosa [4] = details: P. aeruginosa isolate 103; CLSI QC range in parenthesis; cited from earlier work
[5] = format: in vivo, patients; details: end of treatment (Week 2-3), test of cure (Week 4-5), end of study (Week 8-9)
P. aeruginosa [6] = details: control strain ATCC 27853; cited from earlier work
in vivo = details: rat, rats, lung-deposited dose, read-out: acute no observed adverse effect level (NOAEL)
Experimental: Based on rat tox and PK data to date, an acute no observed adverse effect level (NOAEL) in rats is approximately 100 μg/kg lung-deposited dose. The NOAEL was established through clinical observation during and after treatment, gross necropsy, lung lavage analysis, clinical chemistry, and hematology results. […] Furthermore, lung surface fluid concentrations are approximately 30-fold higher than the corresponding total lung tissue concentrations for BisEDT which appears to persist primarily on the lumen.

Escherichia coli = details: CLSI established QC range, cited from earlier work
P. aeruginosa [7] = details: P. aeruginosa isolate 103; CLSI QC range in parenthesis; cited from earlier work; remark: listed apart in the source
Enterobacteriaceae = details: E. coli (MMX 102), QC; cited from earlier work
P. aeruginosa [8] = experiment: Broth microdilution MIC (Example 10); format: cell-based, Pseudomonas aeruginosa; details: initial MIC testing

For `CC(S)C(C)S.[Bi]` (stereo not shown) [BisBDT, bismuth-2,3-butanedithiol], the MIC (Enterococcus spp.) is given as 0.25 to 1 µg/mL, the “Expected MIC: goal (acceptable range)” value (S. aureus ATCC 29213) is given as 0.25 (0.12-0.5) mcg/mL and the bactericidal activity [1] is given as “not bactericidal”. For the same compound, the “more surviving in cultures with sputum” value ([1]; 4 μg/mL, 3-6 hours) was 0.5-0.8 log CFU/mL, the killing without sputum ([1]; 4 μg/mL, over the 6 hour assay) was “about 1 log” and the “time to sterilization below the limit of detection” value ([1]; 20 μg/mL, with and without sputum) was no more than 5 h. The MIC (Candida albicans) was 2 µg/mL.

For `C1C[S][Bi]([S]CC[S][Bi]2[S]CC[S]2)[S]1` [BisEDT, Bismuth-1,2-ethanedithiol], the solubility (physchem) is given as less than 5 µg/mL, the “QC range of MIC” value (Pseudomonas aeruginosa) is given as “(0.5-4) μg/mL” and the TEER ([2]; BisEDT in solution 0.001-30 μM, all time points) is given as “didn't show significant effect”. For the same compound, the TEER ([2]; solid, 1 μg/cm^2, 8, 24 and 48H) was “Loss of tissue integrity”, the TEER ([2]; solid, 1 μg/cm^2, 1 hour) was “no significant effect” and the TEER ([2]; solid, 0.033 and 0.33 μg/cm^2, all time points) was “No significant effect”. For the same compound, the TEER ([2]; solid, all tested doses, 1 hour exposure) was “no significant effect”, the “CLSI acceptable MIC QC range” value ([3]; S. aureus ATCC 29213) was “(0.12-1) μg/mL” and the “CLSI acceptable MIC QC range” value ([3]; S. pneumoniae ATCC 49619) was “(0.12-1) μg/mL”. For the same compound, the “CLSI QC range of MIC” value (P. aeruginosa [4]) was “(0.5-4)^2 μg/mL”, the “QC Range 24 hr” value (S. aureus ATCC 29213; S. aureus ATCC 29213, established QC range, 24 hr) was 0.12-1 and the “Expected MIC: goal (acceptable range)” value (S. aureus ATCC 29213) was 0.25 to 0.5 µg/mL. For the same compound, the bactericidal activity [1] was “not bactericidal”, the “proportion of subjects with >50% reduction in wound surface area from baseline vs placebo” value [5] was “A larger proportion” and the “Expected MIC: goal (acceptable range)” value (P. aeruginosa [6]) was 1 to 2 µg/mL. For the same compound, the NOAEL (in vivo) was roughly 0.1 mg/kg, the “QC range of MIC” value (Escherichia coli; E. coli ATCC 25922) was “(0.5-4)^1 μg/mL” and the “CLSI QC range of MIC” value (P. aeruginosa [7]) was “(0.5-4) μg/mL”.

In the case of `C[C@@H](O)[C@H]1C(=O)N2C(C(=O)O)=C(S[C@@H]3CN[C@H](C(=O)N(C)C)C3)[C@H](C)[C@H]12` [MEM], the “QC range of MIC” value (Pseudomonas aeruginosa) is listed as “(0.12-1) μg/mL”, the “CLSI QC range of MIC” value (P. aeruginosa [4]) is listed as “(0.12-1) μg/mL” and the “CLSI Quality Control Range (MIC)” value (Enterobacteriaceae) is listed as “(0.008-0.06) μg/mL”. It also gave an MIC (P. aeruginosa [8]; P. aeruginosa isolate 103, QC strain) of 1 µg/mL (≈ 2.61 µM), an MIC (P. aeruginosa [8]; P. aeruginosa isolate 1497 (TOB-R AMK-R, CIP-I, AZT-R, COL-R)) of 0.06 µg/mL (≈ 0.156 µM) and an MIC (P. aeruginosa [8]; P. aeruginosa isolate 1530 (TOB-R, AMK-R, CIP-R)) of 0.5 µg/mL (≈ 1.3 µM). It also gave an MIC (P. aeruginosa [8]; P. aeruginosa isolate 1553 (TOB-R, AMK-R, CIP-R)) of 0.5 µg/mL (≈ 1.3 µM), an MIC (P. aeruginosa [8]; P. aeruginosa isolate 6322 (MEM-R, TOB-R, AMK-R, CIP-R, AZT-R)) of 16 µg/mL (≈ 41.7 µM) and an MIC (P. aeruginosa [8]; P. aeruginosa isolate 6977 (MEM-I, TOB-R, CIP-R, AZT-I)) of 4 µg/mL (≈ 10.4 µM). The MIC (P. aeruginosa [8]; P. aeruginosa isolate 7745 (MEM-R, CIP-R, AZT-R)) was 16 µg/mL (≈ 41.7 µM), the MIC (P. aeruginosa [8]; P. aeruginosa isolate 7754 (MEM-R, TOB-R, CIP-R, AZT-I)) was 32 µg/mL (≈ 83.4 µM) and the MIC (P. aeruginosa [8]; P. aeruginosa isolate 7762 (MEM-I, CIP-I)) was 4 µg/mL (≈ 10.4 µM). The MIC (P. aeruginosa [8]; P. aeruginosa isolate 7871 (MEM-R, AZT-I)) was 8 µg/mL (≈ 20.9 µM), the MIC (P. aeruginosa [8]; P. aeruginosa isolate 7874) was 1 µg/mL (≈ 2.61 µM) and the MIC (P. aeruginosa [8]; P. aeruginosa isolate 7886 (MEM-R, CIP-R, AZT-R)) was 32 µg/mL (≈ 83.4 µM). For the same compound, the MIC (P. aeruginosa [8]; P. aeruginosa isolate 8797 (MEM-R, TOB-R, AMK-R, CIP-R, AZT-R, COL-R)) was 32 µg/mL (≈ 83.4 µM), the MIC (P. aeruginosa [8]; P. aeruginosa isolate 8798 (MEM-R, TOB-R, AMK-R, CIP-R, AZT-R, COL-R)) was 64 µg/mL (≈ 167 µM) and the MIC (P. aeruginosa [8]; P. aeruginosa isolate 9108 (CIP-R, AZT-I)) was 0.5 µg/mL (≈ 1.3 µM). For the same compound, the “QC range of MIC” value (Escherichia coli; E. coli ATCC 25922) was “(0.008-0.06) μg/mL”, the “QC range of MIC” value (Escherichia coli; E. coli ATCC 35218) was “(0.008-0.06) μg/mL” and the “CLSI QC range of MIC” value (P. aeruginosa [7]) was “(0.12-1) μg/mL”.
